This passage reports EPSA results from US20260022143A1, “Cyclic Peptide Inhibitors of IL-23” (JANSSEN PHARMACEUTICA NV, priority 2022, published 2026).

Starred links: 1 amine or outer side, 2 acyl side, 3 side chain; linkers in the order of their positions; H or OH if unused. Positions of bridges follow the written chain, without caps; N, C: chain ends. Non-standard residues stand in square brackets, D forms with d. Residues, ends and D or L forms follow the SMILES beside them. *: point of attachment. Me3N+(CH2)2O(CH2)2O(CH2)2CO = C[N+](C)(C)CCOCCOCCC(=O)*; CH2CH2OCH2CH2OCH2CH2NMe3+ = C[N+](C)(C)CCOCCOCC*; Trp(7-Me) = Cc1cccc2c(C[C@H](N)C(=O)O)c[nH]c12; Decanoyl(3,6,9-trioxa) = COCCOCCOCC(=O)*; Dab(NMeAc) = CC(=O)N(C)CC[C@H](N)C(=O)O; X1 = CN(CC[C@H](N[*:1])C(=O)[*:2])[*:3]; 2Nal = N[C@@H](Cc1ccc2ccccc2c1)C(=O)O; AEF = NCCOc1ccc(C[C@H](N)C(=O)O)cc1; X24 = C[N+](C)(CCN[*:1])CC(=O)[*:2]; X82 = C[N+](C)(C)CCOCCOCCOCCOCCN*; 3Pal = N[C@@H](Cc1cccnc1)C(=O)O; Lys(Me) = CNCCCC[C@H](N)C(=O)O; X7 = COCCOCCOCCOCCOCCOCCC(=O)*; Pen = CC(C)(S)[C@H](N)C(=O)O; Thp = NC1(C(=O)O)CCOCC1; X3 = C[N+](C)(C)CCCCC*; Sar = CNCC(=O)O

This data set in a line: Exposed Polar Surface Area (EPSA). In kind it is physicochemical. As to conditions: SFC on Chirex 3014 column; sample 1 mM DMSO stock; read-out: EPSA. The procedure, abridged:
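Polarity descriptor in Å² derived from retention time using 8 calibration standards re-run every 20 compounds. Duplicate injections of 1 mM DMSO stock; linear 5–60% modifier gradient (20 mM ammonium formate in MeOH) with CO2 at 4 mL/min, 35 °C, on a Chirex 3014 column.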
For the compound `CC(=O)NCCCC[C@@H]1NC(=O)[C@H](Cc2c[nH]c3c(C)cccc23)NC(=O)[C@H]([C@@H](C)O)NC(=O)[C@H](CC(N)=O)NC(=O)[C@@H](NC(C)=O)C(C)(C)SSC(C)(C)[C@@H](C(=O)N[C@@H](Cc2ccc(OCCN)cc2)C(=O)N[C@@H](Cc2ccc3ccccc3c2)C(=O)NC2(C(=O)N[C@@H](CCCCNC(C)=O)C(=O)N[C@@H](CC(N)=O)C(=O)N[C@@H](Cc3cccnc3)C(=O)N(C)CC(=O)NCCOCCOCCOCCOCC[N+](C)(C)C)CCOCC2)NC1=O` [compound 155] (Ac-[Pen]NT[Trp(7-Me)]K(Ac)[Pen][AEF][2Nal][Thp]K(Ac)N[3Pal][Sar]-X82; disulfide 1-6 (inferred)), the EPSA worked out at 150 A^2.
Next, `COCCOCCOCCOCCOCCOCCC(=O)N(C)CC[C@@H]1NC(=O)[C@H](Cc2c[nH]c3c(C)cccc23)NC(=O)[C@H]([C@@H](C)O)NC(=O)[C@H](CC(=O)N(C)C)NC(=O)[C@@H](NC(C)=O)C(C)(C)SSC(C)(C)[C@@H](C(=O)N[C@@H](Cc2ccc(OCCN)cc2)C(=O)N[C@@H](Cc2ccc3ccccc3c2)C(=O)NC2(C(=O)N[C@@H](CCC(=O)O)C(=O)N[C@@H](CC(N)=O)C(=O)N[C@@H](Cc3cccnc3)C(=O)N(C)CC(=O)N(C)C)CCOCC2)NC1=O` [compound 158, MeCO-Pen(3)-N(N(Me)2)-T-7MeW-Dab(NMeCOmPEG6)-Pen(3)-AEF-2Nal-THP-E-N-3Pya-Sar-CON(Me)2] (Ac-[Pen]D(NMe2)T[Trp(7-Me)][X1](X7)[Pen][AEF][2Nal][Thp]EN[3Pal][Sar]-NMe2; disulfide 1-6): 160 A^2; `CC(=O)N(C)CCCC[C@H](NC(=O)C1(NC(=O)[C@H](Cc2ccc3ccccc3c2)NC(=O)[C@H](Cc2ccc(OCCN)cc2)NC(=O)[C@H]2NC(=O)[C@H](CCC(=O)N(C)C)NC(=O)[C@H](Cc3c[nH]c4c(C)cccc34)NC(=O)[C@H]([C@@H](C)O)NC(=O)[C@H](CC(N)=O)NC(=O)[C@@H](NC(=O)CCOCCOCC[N+](C)(C)C)C(C)(C)SSC2(C)C)CCOCC1)C(=O)N[C@@H](CC(N)=O)C(=O)N[C@@H](Cc1cccnc1)C(=O)N(C)CC(N)=O` [compound 168, cPEG3aCO-Pen(3)-N-T-7MeW-Q(N(Me)2)-Pen(3)-AEF-2Nal-THP-K(NMeAc)-N-3Pya-Sar-CONH2] ({Me3N+(CH2)2O(CH2)2O(CH2)2CO}-[Pen]NT[Trp(7-Me)]E(NMe2)[Pen][AEF][2Nal][Thp][Lys(Me)](Ac)N[3Pal][Sar]-NH2; disulfide 1-6): 154 A^2; `CC(=O)N(C)CCCC[C@@H]1NC(=O)[C@H](Cc2c[nH]c3c(C)cccc23)NC(=O)[C@H]([C@@H](C)O)NC(=O)[C@H](CC(=O)N(C)C)NC(=O)[C@@H](NC(=O)CCOCCOCC[N+](C)(C)C)C(C)(C)SSC(C)(C)[C@@H](C(=O)N[C@@H](Cc2ccc(OCCN)cc2)C(=O)N[C@@H](Cc2ccc3ccccc3c2)C(=O)NC2(C(=O)N[C@@H](CCCCN(C)C(C)=O)C(=O)N[C@@H](CC(N)=O)C(=O)N[C@@H](Cc3cccnc3)C(=O)N(C)CC(N)=O)CCOCC2)NC1=O` [compound 169, cPEG3aCO-Pen(3)-N(N(Me)2)-T-7MeW-K(NMeAc)-Pen(3)-AEF-2Nal-THP-K(NMeAc)-N-3Pya-Sar-CONH2] ({Me3N+(CH2)2O(CH2)2O(CH2)2CO}-[Pen]D(NMe2)T[Trp(7-Me)][Lys(Me)](Ac)[Pen][AEF][2Nal][Thp][Lys(Me)](Ac)N[3Pal][Sar]-NH2; disulfide 1-6): 154 A^2.
Next, `CC(=O)N[C@@H]1C(=O)N[C@@H](CC(=O)N(C)C)C(=O)N[C@@H]([C@@H](C)O)C(=O)N[C@@H](Cc2c[nH]c3c(C)cccc23)C(=O)N[C@@H](CCCCN(C)C(C)=O)C(=O)N[C@H](C(=O)N[C@@H](Cc2ccc(OCCN)cc2)C(=O)N[C@@H](Cc2ccc3ccccc3c2)C(=O)NC2(C(=O)N[C@@H](CCCCN(C)C(C)=O)C(=O)N[C@@H](CC(N)=O)C(=O)N[C@@H](Cc3cccnc3)C(=O)N(C)CC(N)=O)CCOCC2)C(C)(C)SSC1(C)C` [compound 182, MeCO-Pen(3)-N(N(Me)2)-T-7MeW-K(NMeAc)-Pen(3)-AEF-2Nal-THP-K(NMeAc)-N-3Pya-Sar-CONH2] (Ac-[Pen]D(NMe2)T[Trp(7-Me)][Lys(Me)](Ac)[Pen][AEF][2Nal][Thp][Lys(Me)](Ac)N[3Pal][Sar]-NH2; disulfide 1-6): 153 A^2; `CC(=O)NCCCC[C@@H]1NC(=O)[C@H](Cc2c[nH]c3c(C)cccc23)NC(=O)[C@H]([C@@H](C)O)NC(=O)[C@H](CC(N)=O)NC(=O)[C@@H](NC(C)=O)C(C)(C)SSC(C)(C)[C@@H](C(=O)N[C@@H](Cc2ccc(OCCNC(=O)CCOCCOCC[N+](C)(C)C)cc2)C(=O)N[C@@H](Cc2ccc3ccccc3c2)C(=O)NC2(C(=O)N[C@@H](CNC(C)=O)C(=O)N[C@@H](CC(N)=O)C(=O)N[C@@H](Cc3cccnc3)C(=O)N(C)CC(N)=O)CCOCC2)NC1=O` [compound 189]: 144 A^2.
Next, `CC(=O)N[C@@H]1C(=O)N[C@@H](CC(=O)N(C)C)C(=O)N[C@@H]([C@@H](C)O)C(=O)N[C@@H](Cc2c[nH]c3c(C)cccc23)C(=O)N[C@@H](CCCCN(C)C(C)=O)C(=O)N[C@H](C(=O)N[C@@H](Cc2ccc(OCCCCC[N+](C)(C)C)cc2)C(=O)N[C@@H](Cc2ccc3ccccc3c2)C(=O)NC2(C(=O)N[C@@H](CCCCN(C)C(C)=O)C(=O)N[C@@H](CC(N)=O)C(=O)N[C@@H](Cc3cccnc3)C(=O)N(C)CC(=O)N(C)C)CCOCC2)C(C)(C)SSC1(C)C` [compound 190, MeCO-Pen(3)-N(N(Me)2)-T-7MeW-K(NMeAc)-Pen(3)-TMAPF-2Nal-THP-K(NMeAc)-N-3Pya-Sar-CON(Me)2] (Ac-[Pen]D(NMe2)T[Trp(7-Me)][Lys(Me)](Ac)[Pen]Y(X3)[2Nal][Thp][Lys(Me)](Ac)N[3Pal][Sar]-NMe2; disulfide 1-6 (inferred)): 137 A^2; `CC(=O)NCCCC[C@@H]1NC(=O)[C@H](Cc2c[nH]c3c(C)cccc23)NC(=O)[C@H]([C@@H](C)O)NC(=O)[C@H](CC(N)=O)NC(=O)[C@@H](NC(=O)CCCCC[N+](C)(C)C)C(C)(C)SSC(C)(C)[C@@H](C(=O)N[C@@H](Cc2ccc(OCCNC(=O)CCOCCOCC[N+](C)(C)C)cc2)C(=O)N[C@@H](Cc2ccc3ccccc3c2)C(=O)NC2(C(=O)N[C@@H](CNC(C)=O)C(=O)N[C@@H](CC(N)=O)C(=O)N[C@@H](Cc3cccnc3)C(=O)N(C)CC(N)=O)CCOCC2)NC1=O` [compound 192]: 149 A^2; `CC(=O)NCCCC[C@@H]1NC(=O)[C@H](Cc2c[nH]c3c(C)cccc23)NC(=O)[C@H]([C@@H](C)O)NC(=O)[C@H](CC(N)=O)NC(=O)[C@@H](NC(C)=O)C(C)(C)SSC(C)(C)[C@@H](C(=O)N[C@@H](Cc2ccc(OCCOCCOCC[N+](C)(C)C)cc2)C(=O)N[C@@H](Cc2ccc3ccccc3c2)C(=O)NC2(C(=O)N[C@@H](CCCCNC(C)=O)C(=O)N[C@@H](CC(N)=O)C(=O)N[C@@H](Cc3cccnc3)C(=O)N(C)CC(N)=O)CCOCC2)NC1=O` [compound 194] (Ac-[Pen]NT[Trp(7-Me)]K(Ac)[Pen]Y(CH2CH2OCH2CH2OCH2CH2NMe3+)[2Nal][Thp]K(Ac)N[3Pal][Sar]-NH2; disulfide 1-6): 146 A^2.
Take `CC(=O)NCCCC[C@@H]1NC(=O)[C@H](Cc2c[nH]c3c(C)cccc23)NC(=O)[C@H]([C@@H](C)O)NC(=O)[C@H](CC(N)=O)NC(=O)[C@@H](NC(=O)CCOCCOCC[N+](C)(C)C)C(C)(C)SSC(C)(C)[C@@H](C(=O)N[C@@H](Cc2ccc(OCCOCCOCC[N+](C)(C)C)cc2)C(=O)N[C@@H](Cc2ccc3ccccc3c2)C(=O)NC2(C(=O)N[C@@H](CCCCNC(C)=O)C(=O)N[C@@H](CC(N)=O)C(=O)N[C@@H](Cc3cccnc3)C(=O)N(C)CC(N)=O)CCOCC2)NC1=O` [compound 195, cPEG3aCO-Pen(3)-N-T-7MeW-K(Ac)-Pen(3)-APEG3F-2Nal-THP-K(Ac)-N-3Pya-Sar-CONH2] ({Me3N+(CH2)2O(CH2)2O(CH2)2CO}-[Pen]NT[Trp(7-Me)]K(Ac)[Pen]Y(CH2CH2OCH2CH2OCH2CH2NMe3+)[2Nal][Thp]K(Ac)N[3Pal][Sar]-NH2; disulfide 1-6): the EPSA amounted to 147 A^2.
For `CC(=O)N(C)CC[C@H](NC(=O)C1(NC(=O)[C@H](Cc2ccc3ccccc3c2)NC(=O)[C@H](Cc2ccc(OCCN)cc2)NC(=O)[C@H]2NC(=O)[C@H](CCN(C)C(=O)CCOCCOCC[N+](C)(C)C)NC(=O)[C@H](Cc3c[nH]c4c(C)cccc34)NC(=O)[C@H]([C@@H](C)O)NC(=O)[C@H](CC(=O)N(C)C)NC(=O)[C@@H](NC(=O)CCOCCOCC[N+](C)(C)C)C(C)(C)SSC2(C)C)CCOCC1)C(=O)N[C@@H](CC(N)=O)C(=O)N[C@@H](Cc1cccnc1)C(=O)N(C)CC(=O)N(C)C` [compound 196, cPEG3aCO-Pen(3)-N(N(Me)2)-T-7MeW-Dab(NMecPEG3a)-Pen(3)-AEF-2Nal-THP-Dab(NMeAc)-N-3Pya-Sar-CON(Me)2] ({Me3N+(CH2)2O(CH2)2O(CH2)2CO}-[Pen]D(NMe2)T[Trp(7-Me)][X1](Me3N+(CH2)2O(CH2)2O(CH2)2CO)[Pen][AEF][2Nal][Thp][Dab(NMeAc)]N[3Pal][Sar]-NMe2; disulfide 1-6 (inferred)), the EPSA turned out to be 149 A^2.
Next, `COCCOCCOCC(=O)NCC[N+](C)(C)CC(=O)N[C@@H]1C(=O)N[C@@H](CC(=O)N(C)C)C(=O)N[C@@H]([C@@H](C)O)C(=O)N[C@@H](Cc2c[nH]c3c(C)cccc23)C(=O)N[C@@H](CCCCN(C)C(C)=O)C(=O)N[C@H](C(=O)N[C@@H](Cc2ccc(OCCOCCOCC[N+](C)(C)C)cc2)C(=O)N[C@@H](Cc2ccc3ccccc3c2)C(=O)NC2(C(=O)N[C@@H](CCN(C)C(C)=O)C(=O)N[C@@H](CC(N)=O)C(=O)N[C@@H](Cc3cccnc3)C(=O)N(C)CC(=O)N(C)C)CCOCC2)C(C)(C)SSC1(C)C` [compound 197, mPEG3CO-SP6-Pen(3)-N(N(Me)2)-T-7MeW-K(NMeAc)-Pen(3)-APEG3F-2Nal-THP-Dab(NMeAc)-N-3Pya-Sar-CON(Me)2] ({Decanoyl(3,6,9-trioxa)}-[X24][Pen]D(NMe2)T[Trp(7-Me)][Lys(Me)](Ac)[Pen]Y(CH2CH2OCH2CH2OCH2CH2NMe3+)[2Nal][Thp][Dab(NMeAc)]N[3Pal][Sar]-NMe2; disulfide 2-7): 137 A^2.
